Experimental data as given in the NIST ThermoML archive (doi:10.1016/j.fluid.2014.08.005).

Legend:
[1] = for viscosity / mass density: 101.33 kPa, Liquid; for viscosity: Cone and plate viscometry; for mass density: Vibrating tube method; for surface tension liquid-gas: Pendant drop shape
[2] = refractive index (Na D-line) (dimensionless); settings: 101.33 kPa, Liquid, Standard Abbe refractometry

CCCC[N+](C)(C)C.O=S(=O)([N-]S(=O)(=O)C(F)(F)F)C(F)(F)F [butyltrimethylammonium bis(trifluoromethylsulfonyl)imide]
Settings	mass density, [1] [kg/m3]	refractive index, [2]	surface tension liquid-gas, [1] [mN/m]	viscosity, [1] [mPa·s]
283.15 K	1407.8	1.4122	–	254.2
288.15 K	1403.2	1.41083	–	184.6
293.15 K	1398.7	1.40945	–	137.7
293.2 K	–	–	33.4	–
298.15 K	1394.2	1.40818	–	105.2
298.2 K	–	–	33.2	–
303.15 K	1389.8	1.40676	–	82
303.2 K	–	–	33	–
308.15 K	1385.4	1.40538	–	65.2
313.1 K	–	–	32.5	–
313.15 K	1381	1.40405	–	52.7
318.15 K	1376.6	1.40273	–	43.2
323.1 K	–	–	32	–
323.15 K	1372.3	1.40142	–	35.9
328.15 K	1368	1.40006	–	30.2
333.1 K	–	–	31.5	–
333.15 K	1363.7	1.39877	–	25.7
338.15 K	1359.5	1.39747	–	22
343.15 K	1355.2	1.39616	–	19.1
348.15 K	1351	1.39486	–	16.7
353.15 K	1346.8	1.39358	–	14.7

CC[S+](C)CC.O=S(=O)([N-]S(=O)(=O)C(F)(F)F)C(F)(F)F [diethylmethylsulfonium bis[(trifluoromethyl)sulfonyl]imide]
Settings	mass density, [1] [kg/m3]	refractive index, [2]	surface tension liquid-gas, [1] [mN/m]	viscosity, [1] [mPa·s]
283.15 K	1517.3	1.42745	–	78.3
288.15 K	1512.2	1.42597	–	62.1
293.15 K	1507.2	1.42452	–	49.9
293.2 K	–	–	35.7	–
298.15 K	1502.3	1.42325	–	41.1
298.2 K	–	–	35.5	–
303.15 K	1497.3	1.42168	–	34.1
303.2 K	–	–	35.3	–
308.15 K	1492.4	1.42026	–	28.7
313.1 K	–	–	34.8	–
313.15 K	1487.6	1.41886	–	24.4
318.15 K	1482.8	1.41744	–	21
323.1 K	–	–	34.4	–
323.15 K	1478	1.41606	–	18.2
328.15 K	1473.2	1.41468	–	15.9
333.1 K	–	–	33.9	–
333.15 K	1468.5	1.41331	–	14
338.15 K	1463.8	1.41195	–	12.5
343.1 K	–	–	33.4	–
343.15 K	1459.1	1.41058	–	11.1
348.15 K	1454.5	1.40925	–	10
353.15 K	1449.8	1.40793	–	9

CCCC[N+](C)(CCCC)CCCC.O=S(=O)([N-]S(=O)(=O)C(F)(F)F)C(F)(F)F [tributylmethylammonium bis((trifluoromethyl)sulfonyl)imide]
Settings	mass density, [1] [kg/m3]	refractive index, [2]	surface tension liquid-gas, [1] [mN/m]	viscosity, [1] [mPa·s]
283.15 K	1276	1.4308	–	2049.8
288.15 K	1271.7	1.42933	–	1264
293.15 K	1267.3	1.42787	–	819.2
293.3 K	–	–	30.8	–
298.15 K	1262.8	1.42643	–	538.9
298.2 K	–	–	30.6	–
303.15 K	1258.4	1.42491	–	369.3
303.2 K	–	–	30.2	–
308.15 K	1254.1	1.42338	–	260.4
313.15 K	1249.9	1.42194	–	189.5
313.2 K	–	–	29.7	–
318.15 K	1245.8	1.42047	–	139.6
323.15 K	1241.7	1.41902	–	105.6
323.2 K	–	–	29.1	–
328.15 K	1237.6	1.41758	–	81.5
333.15 K	1233.6	1.41613	–	64.1
338.15 K	1229.5	1.41468	–	51.1
343.15 K	1225.5	1.41324	–	41.4
348.15 K	1221.5	1.4118	–	34
353.15 K	1217.5	1.4104	–	28.3

CC[S+](CC)CC.O=S(=O)([N-]S(=O)(=O)C(F)(F)F)C(F)(F)F [triethylsulfonium bis((trifluoromethyl)sulfonyl)imide]
Settings	mass density, [1] [kg/m3]	refractive index, [2]	surface tension liquid-gas, [1] [mN/m]	viscosity, [1] [mPa·s]
283.15 K	1477	1.43056	–	64.4
288.15 K	1472	1.42906	–	51.1
293.15 K	1467.1	1.42765	–	41.1
293.3 K	–	–	35.5	–
298.15 K	1462.1	1.42632	–	33.9
298.2 K	–	–	35.2	–
303.15 K	1457.3	1.42472	–	28.2
303.2 K	–	–	35	–
308.15 K	1452.4	1.42325	–	23.8
313.1 K	–	–	34.4	–
313.15 K	1447.6	1.42185	–	20.3
318.15 K	1442.8	1.42044	–	17.5
323 K	–	–	34	–
323.15 K	1438.1	1.41906	–	15.2
328.15 K	1433.4	1.41767	–	13.4
333.1 K	–	–	33.4	–
333.15 K	1428.7	1.41629	–	11.8
338.15 K	1424	1.4149	–	10.5
343.1 K	–	–	32.9	–
343.15 K	1419.4	1.41353	–	9.4
348.15 K	1414.8	1.41215	–	8.5
353.15 K	1410.2	1.41077	–	7.7
